Five compounds from publication PMC7344389, “Discovery of Anti-Amoebic Inhibitors from Screening the MMV Pandemic Response Box on Balamuthia mandrillaris, Naegleria fowleri, and Acanthamoeba castellanii” (Pathogens, 2020) can be followed below.

Format in all cases: cell-based
The test system of assay [1] is Balamuthia mandrillaris trophozoites. The experiment in a line: CellTiter-Glo 2.0 trophocidal assay, B. mandrillaris. The note with it: for IC50: 72 h, CTG method, duplicate twofold serial dilutions from 10 µM, mean ± SD; for Selectivity Index (A549 IC50/B. mandrillaris IC50): SI = (IC50 A549)/(IC50 Amoeba). Here is the method: Pathogenic Balamuthia mandrillaris (CDC:[…]; American Type Culture Collection (ATCC) 50209), a GAE isolate, isolated from a pregnant baboon at the San Diego Zoo in 1986 was donated by Luis Fernando […] University, Mexico [43]. Trophozoites were routinely grown axenically in Balamuthia mandrillaris Itson (BMI) media at 37 °C, 5% CO2 in vented 75 cm^2 tissue culture flasks (Olympus, El Cajon, CA, USA), until the cells were 80-90% confluent. For sub-culturing, 0.25% Trypsin-EDTA (Gibco, Gaithersburg, MD, USA) cell detachment reagent was used to detach the cells from the culture flasks. The cells were collected by centrifugation at 4000 rpm at 4 °C. Complete BMI media is produced by the addition of 10% fetal bovine serum (FBS) and 125 μg of penicillin/streptomycin antibiotics. The trophocidal activity of compounds was assessed using the CellTiter-Glo 2.0 luminescent viability assay (Promega, Madison, WI, USA), as previously described. Trophozoites were routinely cultured as described above and only logarithmic trophozoites were used. […] Inhibitors were assessed for percent inhibition using the criteria of ≤33% growth inhibition (no inhibition), 33-67% growth inhibition (moderate inhibition), and ≥67% growth inhibition (strong inhibition). […] We used this process to reduce the number of potential false positives. […] All assays were incubated at each of the parasites' representative growth temperatures, described above, for 72 h. At the 72 h time point, 25 μL of CellTiter-Glo 2.0 reagent was added to all wells of the 96-well plates using the Biomek NX^P automated workstation. The plates were protected from light and contents were mixed using an orbital shaker at 300 rpm at room temperature for 2 min to induce cell lysis. After shaking, the plates were equilibrated at room temperature for 10 min to stabilize the luminescent signal. The adenosine triphosphate (ATP) luminescent signal (relative light units; RLUs) was measured at 490 nm with a SpectraMax I3X plate reader (Molecular Devices, Sunnyvale, CA, USA). Drug inhibitory concentration (IC50) curves were generated using total ATP RLUs, where controls were calculated as the average of replicates using the Levenberg-Marquardt algorithm, using DMSO as the normalization control, as defined in Collaborative Drug Discovery Inc. (CDD) Vault (Burlingame, CA, USA). Values reported are from a minimum of two biological replicates with standard deviations.

Assay [2] deals with A549 human lung carcinoma cells. Nature of the assay: MTS cytotoxicity counter-screen of reconfirmed hits. The following applies: Homo sapiens.
In assay [3] the test system is Acanthamoeba castellanii trophozoites. The experiment in a line: CellTiter-Glo 2.0 trophocidal assay, A. castellanii. The note with it: for IC50: CTG method, 72 h, duplicate twofold serial dilutions from 10 µM, mean ± SD; for Selectivity Index (A549 IC50/A. castellanii IC50): SI = (IC50 A549)/(IC50 Amoeba); for potency against A. castellanii, in words: dose-response, CTG. On the procedure:
This isolate was also purchased from ATCC. Trophozoites were routinely grown axenically at 27 °C in Protease Peptone-Glucose Media (PG) in non-vented 75 cm^2 tissue culture flasks (Olympus, El Cajon, CA, USA), until the cells were 80–90% confluent. For sub-culturing, cells were mechanically harvested to detach the cells from the culture flasks. The cells were collected by centrifugation at 4000 rpm at 4 °C.
The trophocidal activity of compounds was assessed using the CellTiter-Glo 2.0 luminescent viability assay (Promega, Madison, WI, USA), as previously described. Trophozoites were routinely cultured as described above and only logarithmic trophozoites were used. […] Initially all compounds were assessed in a single-point drug screen at 10 and 1 μM, as previously described. […] We used this process to reduce the number of potential false positives. Drugs were cherry-picked, dissolved in the media specific to each parasite, and assessed in twofold serial dilutions from the highest concentration of 10 μM. All assays were incubated at each of the parasites’ representative growth temperatures, described above, for 72 h. At the 72 h time point, 25 μL of CellTiter-Glo 2.0 reagent was added to all wells of the 96-well plates using the Biomek NX^P automated workstation. The plates were protected from light and contents were mixed using an orbital shaker at 300 rpm at room temperature for 2 min to induce cell lysis. After shaking, the plates were equilibrated at room temperature for 10 min to stabilize the luminescent signal. The adenosine triphosphate (ATP) luminescent signal (relative light units; RLUs) was measured at 490 nm with a SpectraMax I3X plate reader (Molecular Devices, Sunnyvale, CA, USA). Drug inhibitory concentration (IC50) curves were generated using total ATP RLUs, where controls were calculated as the average of replicates using the Levenberg–Marquardt algorithm, using DMSO as the normalization control, as defined in Collaborative Drug Discovery Inc. (CDD) Vault (Burlingame, CA, USA). Values reported are from a minimum of two biological replicates with standard deviations.

Setting [4] is: A549, MTS assay, 72 h, doubling dilutions from 10 µM, read-out: A549 Mean IC50.

The structures appear in SMILES notation. Like-named read-outs stand apart in the source and are kept apart here.

Consider `CN(Cc1ccc(C(C)(C)C)cc1)Cc1cccc2ccccc12` [Butenafine], for which the IC50 in assay [1] (Balamuthia mandrillaris) was above 10 µM; in assay [2] (setting [4]) it was above 10 µM; in assay [3] it was 1.97 ± 1.76 µM; in assay [3] (listed as butenafine), at most 10 µM. Moreover, the “Selectivity Index (A549 IC50/A. castellanii IC50)” value in assay [3] is recorded as at least 5.08.
For `CC(=O)Oc1ccccc1C(=O)Nc1ncc([N+](=O)[O-])s1` [Nitazoxanide], the IC50 in assay [1] (Balamuthia mandrillaris) is at most 10 µM; in assay [1] it was 8.6 ± 1.98 µM; in assay [2] (setting [4]), above 10 µM; in assay [3] (Acanthamoeba castellanii), above 10 µM. Also, the “Selectivity Index (A549 IC50/B. mandrillaris IC50)” value in assay [1] is listed as at least 1.16.
Regarding `Cc1[nH]c2ccccc2c1CCNCc1ccc(/C=C/C(=O)NO)cc1` [Panobinostat], the IC50 is 0.39 ± 0.04 µM in assay [1] (Balamuthia mandrillaris), below 0.31 µM in assay [2] (setting [4]) and above 10 µM in assay [3] (Acanthamoeba castellanii). In addition, the “Selectivity Index (A549 IC50/B. mandrillaris IC50)” value in assay [1] is below 0.79. In addition, the “potency against B. mandrillaris, in words” value in assay [1] (dose-response, CTG) is recorded as “nanomolar potency”.
As to `C[C@@H](c1nc(-c2ccc(C#N)cc2)cs1)[C@](O)(Cn1cncn1)c1ccc(F)cc1F` [Ravuconazole], the IC50 in assay [1] (Balamuthia mandrillaris) is above 10 µM; in assay [2] (setting [4]), above 10 µM; in assay [3] (Acanthamoeba castellanii), 0.02 ± 0.01 µM. For the same compound, the entries for the “Selectivity Index (A549 IC50/A. castellanii IC50)” value in assay [3] and in assay [3] (listed as ravuconazole) were at least 625 and at least 10, respectively. Besides, in assay [3], the “potency against A. castellanii, in words” value is listed as “nanomolar potency”.
Turning to `CN(C/C=C/C#CC(C)(C)C)Cc1cccc2ccccc12` [Terbinafine], the IC50 was above 10 µM in assay [1] (Balamuthia mandrillaris); above 10 µM in assay [2] (A549, 72 h, read-out: A549 Mean IC50 (µM)); 0.56 ± 0.28 µM in assay [3] (Acanthamoeba castellanii). In addition, the “Selectivity Index (A549 IC50/A. castellanii IC50)” value in assay [3] was at least 18; in assay [3] (listed as terbinafine) it was at least 10. For the same compound, the “potency against A. castellanii, in words” value in assay [3] is listed as “nanomolar potency”.
